These results are taken from article PMC12624743 (ACS Infectious Diseases, 2025).

What is called IC50 is the concentration that inhibits the measured activity by half. By MIC is commonly meant the least concentration at which growth counts as inhibited.

The target of assay [1] is T1, N. gonorrhoeae gyrase GyrA^A92T (Neisseria gonorrhoeae, UniProt P48371, A92T).
T1 construct: His; made in house
Put plainly: Gyrase-catalyzed DNA supercoiling assay, GyrA^A92T. The format is biochemical. How it is done: (§1) All proteins were His-tagged. N. gonorrhoeae WT gyrase (GyrA, GyrB) and topoisomerase IV (ParC, ParE) subunits as well as mutant GyrA^D90N, GyrA^A92T, GyrA^S91F, and GyrA^S91F/D95G gyrase and ParC^D86N and ParC^S88P topoisomerase IV were prepared as described previously. , N. gonorrhoeae mutant GyrA^D95G gyrase and mutant ParC^S87N and ParC^E91G topoisomerase IV were generated using a QuickChange II XL site-directed mutagenesis kit (Agilent Technologies) with custom primers for the desired mutations. […] The identities of all constructs were confirmed by DNA sequencing, and all enzymes were stored at −80 °C. In all assays, N. gonorrhoeae gyrase or topoisomerase IV was used as a 1:1 GyrA:GyrB or ParC:ParE mixture, respectively, and the stated enzyme concentration reflects that of the holoenzyme (A2B2).
(§2) Samples were mixed with 2 μL of loading dye [60% sucrose, 10 mM Tris–HCl (pH 7.9), 0.5% bromophenol blue, and 0.5% xylene cyanol FF] and incubated at 45 °C for 2 min before being subjected to electrophoresis on 1% agarose gels in 100 mM Tris-borate (pH 8.3) and 2 mM EDTA. […] DNA bands were visualized with medium-range ultraviolet light and quantified using an Alpha Innotech digital imaging system (Protein Simple). DNA supercoiling was monitored by the conversion of relaxed to supercoiled plasmid.

Assay [2] has as its system N. gonorrhoeae FA1090E-2 (GyrA^WT/ParC^D86N). Nature of the assay: MIC by agar dilution, ParC^D86N strain. It is filed as cell-based. As to conditions: Neisseria gonorrhoeae. How it is done: Mutations in these efflux genes can result in increased efflux to multiple antibiotics. […] Parental and isogenic mutant strains generated that carried the efflux mutations mtrR-79 and norM ΔT T6 were designated as FA1090E (E for efflux positive). Only the additional GyrA and ParC genotypes are described in Table and in the text. The mutant that additionally expressed ParC^D86N was named FA1090E-2.
Minimum inhibitory concentration (MIC) of test compounds was determined by an agar dilution method, the reference testing method for N. gonorrhoeae according to the standards of the Clinical and Laboratory Standards Institute and the CDC.
A general note: In agar dilution, organisms are placed on agar that contains the substance at set levels.

The test system of assay [3] is N. gonorrhoeae topoisomerase IV ParC^E91G. Put plainly: Topoisomerase IV-catalyzed DNA decatenation assay, ParC^E91G. The format is biochemical, Neisseria gonorrhoeae. Conditions: ParC E91G vs WT. How it is done:
(§3) All proteins were His-tagged. N. gonorrhoeae WT gyrase (GyrA, GyrB) and topoisomerase IV (ParC, ParE) subunits as well as mutant GyrA^D90N, GyrA^A92T, GyrA^S91F, and GyrA^S91F/D95G gyrase and ParC^D86N and ParC^S88P topoisomerase IV were prepared as described previously. , N. gonorrhoeae mutant GyrA^D95G gyrase and mutant ParC^S87N and ParC^E91G topoisomerase IV were generated using a QuickChange II XL site-directed mutagenesis kit (Agilent Technologies) with custom primers for the desired mutations. Mutant N. gonorrhoeae GyrA and ParC subunits were expressed and purified as described by Ashley et al. with the following modifications to optimize protein expression and lysis: (1) GyrA^D95G was expressed for 2.5 h and ParC^S87N and ParC^E91G were expressed for 3 h before harvesting, and (2) cells were lysed by sonication using a digital sonifier (Branson). The identities of all constructs were confirmed by DNA sequencing, and all enzymes were stored at −80 °C. In all assays, N. gonorrhoeae gyrase or topoisomerase IV was used as a 1:1 GyrA:GyrB or ParC:ParE mixture, respectively, and the stated enzyme concentration reflects that of the holoenzyme (A2B2). […]

Assay [4] addresses T2, N. gonorrhoeae gyrase GyrA^S91F/D95G (Neisseria gonorrhoeae, UniProt P48371, D95G/S91F).
T2 construct: His; made in house
Put plainly: Gyrase-catalyzed DNA supercoiling assay, GyrA^S91F/D95G. It is filed as biochemical. Conditions: read-out: IC50, inhibition of DNA supercoiling. Here is the method: as §1, §2

Assay [5] addresses T3, N. gonorrhoeae gyrase GyrA^D90N (Neisseria gonorrhoeae, UniProt P48371, D90N).
T3 construct: His; made in house
Nature of the assay: DNA cleavage assay, GyrA^D90N gyrase. The format is biochemical. How it is done:
Some experiments replaced MgCl2 with an equivalent concentration of CaCl2 (10 mM), or 1.5 mM ATP was added to assay mixtures.
Reactions were incubated at 37 °C for 30 min with WT and mutant (GyrA^D90N, GyrA^A92T, GyrA^S91F, GyrA^D95G, or GyrA^S91F/D95G) N. gonorrhoeae gyrase, 10 min with WT N. gonorrhoeae topoisomerase IV, and 20 min with mutant (ParC^D86N, ParC^S88P, ParC^S87N, or ParC^E91G) N. gonorrhoeae topoisomerase IV. Enzyme-DNA cleavage complexes were trapped by adding 2 μL of 5% SDS followed by 2 μL of 250 mM EDTA (pH 8.0). Proteinase K was added (2 μL of a 0.8 mg/mL solution), and reaction mixtures were incubated at 45 °C for 30 min to digest the enzyme. Samples were mixed with 2 μL of loading buffer and heated at 45 °C for 2 min prior to electrophoresis in 1% agarose gels in 40 mM Tris-acetate (pH 8.3), and 2 mM EDTA containing 0.5 μg/mL ethidium bromide. DNA bands were visualized by midrange ultraviolet light and quantified using an Alpha Innotech digital imaging system (Protein Simple). Single-stranded DNA cleavage was monitored by the conversion of negatively supercoiled to nicked plasmid molecules.

Assay [6] concerns the target N. gonorrhoeae topoisomerase IV ParC^S87N (Neisseria gonorrhoeae, UniProt P48374, S87N). Nature of the assay: Topoisomerase IV-catalyzed DNA decatenation assay, ParC^S87N. It is filed as biochemical. The arrangement: His; made in house. Here is the method: as §3

Converted amounts (≈) assume the structure as drawn.

T1 sequence (P48371 whole entry A92T): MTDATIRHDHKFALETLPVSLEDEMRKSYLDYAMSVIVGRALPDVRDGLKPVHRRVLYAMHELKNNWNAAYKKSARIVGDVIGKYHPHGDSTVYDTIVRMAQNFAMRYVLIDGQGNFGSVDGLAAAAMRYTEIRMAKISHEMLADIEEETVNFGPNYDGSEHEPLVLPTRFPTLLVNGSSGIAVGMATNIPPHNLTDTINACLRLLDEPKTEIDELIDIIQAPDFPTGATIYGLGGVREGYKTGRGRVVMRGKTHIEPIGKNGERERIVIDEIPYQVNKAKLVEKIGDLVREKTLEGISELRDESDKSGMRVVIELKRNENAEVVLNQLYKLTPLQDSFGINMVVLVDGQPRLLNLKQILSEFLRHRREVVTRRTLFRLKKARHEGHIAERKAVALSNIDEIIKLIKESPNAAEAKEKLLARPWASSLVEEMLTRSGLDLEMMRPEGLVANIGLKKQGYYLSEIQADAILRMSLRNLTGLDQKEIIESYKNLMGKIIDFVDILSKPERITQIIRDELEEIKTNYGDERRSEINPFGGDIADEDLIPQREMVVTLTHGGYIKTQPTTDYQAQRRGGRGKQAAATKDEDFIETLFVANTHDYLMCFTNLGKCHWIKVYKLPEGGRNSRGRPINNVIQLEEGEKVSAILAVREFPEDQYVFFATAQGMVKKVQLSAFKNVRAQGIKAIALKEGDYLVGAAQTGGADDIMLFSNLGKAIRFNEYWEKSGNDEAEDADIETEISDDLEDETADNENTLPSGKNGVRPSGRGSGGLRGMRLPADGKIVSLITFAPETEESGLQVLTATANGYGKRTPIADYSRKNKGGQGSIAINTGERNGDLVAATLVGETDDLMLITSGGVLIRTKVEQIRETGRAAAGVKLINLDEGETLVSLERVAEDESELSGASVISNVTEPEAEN
T1 sequence (P22118 whole entry partner): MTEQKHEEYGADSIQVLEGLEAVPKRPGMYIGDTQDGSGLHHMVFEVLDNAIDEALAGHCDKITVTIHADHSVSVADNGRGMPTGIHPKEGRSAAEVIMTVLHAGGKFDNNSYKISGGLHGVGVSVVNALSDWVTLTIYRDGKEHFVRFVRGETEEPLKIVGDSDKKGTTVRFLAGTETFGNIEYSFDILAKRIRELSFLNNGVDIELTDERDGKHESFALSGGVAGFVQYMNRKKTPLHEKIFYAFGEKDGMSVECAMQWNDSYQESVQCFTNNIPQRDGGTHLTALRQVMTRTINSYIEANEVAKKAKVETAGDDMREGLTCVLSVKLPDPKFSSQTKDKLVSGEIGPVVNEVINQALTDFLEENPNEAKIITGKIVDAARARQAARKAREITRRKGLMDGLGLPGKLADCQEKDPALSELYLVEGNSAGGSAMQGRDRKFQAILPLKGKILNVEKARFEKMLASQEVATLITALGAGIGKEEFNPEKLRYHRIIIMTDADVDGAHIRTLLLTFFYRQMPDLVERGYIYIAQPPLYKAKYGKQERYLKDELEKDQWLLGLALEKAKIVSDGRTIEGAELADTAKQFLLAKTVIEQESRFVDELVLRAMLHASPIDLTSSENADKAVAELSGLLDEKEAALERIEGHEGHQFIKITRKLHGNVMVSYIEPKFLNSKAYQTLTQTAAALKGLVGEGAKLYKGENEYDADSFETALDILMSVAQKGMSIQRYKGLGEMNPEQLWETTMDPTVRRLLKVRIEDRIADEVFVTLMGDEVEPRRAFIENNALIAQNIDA
T3 sequence (P48371 whole entry D90N): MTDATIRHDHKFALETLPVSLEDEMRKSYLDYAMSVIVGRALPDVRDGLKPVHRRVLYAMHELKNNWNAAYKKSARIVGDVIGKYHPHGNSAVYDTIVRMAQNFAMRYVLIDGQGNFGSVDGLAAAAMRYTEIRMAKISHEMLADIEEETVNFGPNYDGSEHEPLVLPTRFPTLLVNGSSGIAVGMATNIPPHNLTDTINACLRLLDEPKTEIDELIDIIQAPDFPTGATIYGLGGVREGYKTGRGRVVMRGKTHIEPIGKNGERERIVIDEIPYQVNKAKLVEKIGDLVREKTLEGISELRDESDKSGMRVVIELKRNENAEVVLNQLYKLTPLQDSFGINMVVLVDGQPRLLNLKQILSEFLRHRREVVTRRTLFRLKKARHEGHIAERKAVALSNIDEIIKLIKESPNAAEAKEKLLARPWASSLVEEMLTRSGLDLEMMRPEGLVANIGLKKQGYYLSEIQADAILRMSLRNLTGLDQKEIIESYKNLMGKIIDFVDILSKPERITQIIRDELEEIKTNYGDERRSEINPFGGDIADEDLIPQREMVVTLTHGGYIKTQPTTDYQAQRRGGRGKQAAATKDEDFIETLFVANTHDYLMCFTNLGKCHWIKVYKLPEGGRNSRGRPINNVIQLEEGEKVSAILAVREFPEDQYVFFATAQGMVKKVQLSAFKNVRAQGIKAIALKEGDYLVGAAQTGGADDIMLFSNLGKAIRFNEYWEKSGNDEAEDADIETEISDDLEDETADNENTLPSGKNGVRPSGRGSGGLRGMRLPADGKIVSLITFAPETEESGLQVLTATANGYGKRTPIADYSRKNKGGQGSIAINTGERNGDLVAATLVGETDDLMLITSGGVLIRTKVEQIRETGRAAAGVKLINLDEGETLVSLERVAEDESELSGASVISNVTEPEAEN
T3 sequence (P22118 whole entry partner): as the sequence (P22118 whole entry partner) above
Chain of N. gonorrhoeae topoisomerase IV ParC^S87N (P48374 whole entry S87N): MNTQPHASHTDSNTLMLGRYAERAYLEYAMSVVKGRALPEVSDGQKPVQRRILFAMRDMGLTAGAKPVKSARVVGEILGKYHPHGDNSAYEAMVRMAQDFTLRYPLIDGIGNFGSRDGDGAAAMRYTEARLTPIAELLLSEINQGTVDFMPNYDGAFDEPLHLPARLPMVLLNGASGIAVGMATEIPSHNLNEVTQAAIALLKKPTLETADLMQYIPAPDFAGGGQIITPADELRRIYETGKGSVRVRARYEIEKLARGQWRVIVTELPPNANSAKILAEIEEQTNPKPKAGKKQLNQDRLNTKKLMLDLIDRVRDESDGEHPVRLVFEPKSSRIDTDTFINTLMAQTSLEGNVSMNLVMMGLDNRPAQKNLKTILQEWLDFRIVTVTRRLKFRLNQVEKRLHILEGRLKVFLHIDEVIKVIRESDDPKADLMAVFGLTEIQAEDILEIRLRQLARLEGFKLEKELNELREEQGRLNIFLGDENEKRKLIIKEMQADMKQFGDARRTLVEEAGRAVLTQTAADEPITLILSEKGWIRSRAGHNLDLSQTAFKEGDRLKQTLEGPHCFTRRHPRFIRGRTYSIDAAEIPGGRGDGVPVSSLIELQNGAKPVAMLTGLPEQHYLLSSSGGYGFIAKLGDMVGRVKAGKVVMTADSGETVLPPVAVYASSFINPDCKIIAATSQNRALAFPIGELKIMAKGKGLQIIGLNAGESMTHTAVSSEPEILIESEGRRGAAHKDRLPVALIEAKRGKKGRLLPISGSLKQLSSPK

On to `O=c1ccc2ncc(=O)n3c2n1C[C@H]3CN1CCC(NCc2cc3c(cn2)OCCC3)CC1` [gepotidacin], for which the 50% inhibitory concentration (IC50) was 8.5 ± 2.1 µM in assay [1] (GyrA A92T gyrase, read-out: IC50, inhibition of DNA supercoiling); 3.6 ± 2.4 µM in assay [4]; 0.8 µM in assay [6]. In addition, the “fold increase of supercoiling IC50 vs WT gyrase” value in assay [1] (GyrA A92T vs WT) is approximately 1.7 fold. This compound also yielded a minimum inhibitory concentration (MIC) in assay [2] of 0.5 µg/mL (≈ 1.11 µM). Moreover, the “fold lower decatenation IC50 vs WT topoisomerase IV” value in assay [3] is given as approximately 1.2 fold. Also, the “Adj-Max Cleavage, single-stranded DNA breaks” value in assay [5] came out at 1.7%. Further, the “increase in gepotidacin-induced DNA cleavage” value in assay [5] (GyrA D90N gyrase) is “essentially no increase”.
